Article PMC4713475, “In Vivo Differences between Two Optical Isomers of Radioiodinated o-iodo-trans-decalinvesamicol for Use as a Radioligand for the Vesicular Acetylcholine Transporter” (PLoS ONE, 2016)

Columns and labels:
VAChT [1] = molecular target: T1, VAChT (Rattus norvegicus, UniProt Q62666); assay: VAChT in vitro competitive binding with (-)-[3H]vesamicol in rat brain preparations
T1 construct: The rats were sacrificed 60 minutes after injection and their brains collected; from tissue; host or cells: brain of live male Sprague-Dawley rats (in vivo)
T1 sequence (Q62666 1-530): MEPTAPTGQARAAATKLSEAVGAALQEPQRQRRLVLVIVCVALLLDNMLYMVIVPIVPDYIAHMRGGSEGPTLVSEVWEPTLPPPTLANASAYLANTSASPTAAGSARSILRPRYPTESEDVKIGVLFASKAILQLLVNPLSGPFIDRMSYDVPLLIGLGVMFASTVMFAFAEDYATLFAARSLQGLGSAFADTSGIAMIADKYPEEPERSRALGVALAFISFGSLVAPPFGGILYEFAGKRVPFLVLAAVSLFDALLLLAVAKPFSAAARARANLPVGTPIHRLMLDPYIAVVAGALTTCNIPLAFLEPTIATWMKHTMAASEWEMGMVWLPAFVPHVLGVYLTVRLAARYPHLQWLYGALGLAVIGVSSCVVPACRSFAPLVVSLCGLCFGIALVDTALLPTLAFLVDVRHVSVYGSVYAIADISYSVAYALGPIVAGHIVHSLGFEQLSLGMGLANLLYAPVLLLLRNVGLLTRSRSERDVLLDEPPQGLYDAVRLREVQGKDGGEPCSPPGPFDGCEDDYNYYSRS

σ-2 receptor = molecular target: T2, σ-2 receptor (Rattus norvegicus, UniProt Q5U3Y7); assay: σ-2 receptor competitive binding with [3H]DTG in rat liver preparations
T2 construct: Rat liver preparations (about 100 μg protein) were incubated in quadruplicate; from tissue; host or cells: liver of male Sprague-Dawley rats
T2 sequence (Q5U3Y7 1-176): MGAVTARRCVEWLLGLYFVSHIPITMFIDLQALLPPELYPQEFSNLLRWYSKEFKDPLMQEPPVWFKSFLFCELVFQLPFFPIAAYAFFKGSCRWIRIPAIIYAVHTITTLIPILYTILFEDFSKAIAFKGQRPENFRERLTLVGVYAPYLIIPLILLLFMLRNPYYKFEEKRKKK
Procedure: Rat brain and liver tissue preparations were prepared from dissected brains (not including the cerebellum) and livers from male Sprague-Dawley rats (250–300 g), as previously described[34].
The incubated samples were treated in the same manner as described for the σ-1 receptor binding assay.
Ki values were calculated using Graphpad Prism (GraphPad Software, Inc. San Diego, USA).

[2] = Regional biodistribution of (+)-[3H]-3-PPP in rat's brain; format: in vivo; conditions: rats, n = 4, mean ± SD
Excerpt: S1 Table The regional biodistribution of (+)-[^3H]-3-PPP in rat’s brain.
The values are the mean ± standard deviation (SD) of four rats (n = 4) at each time point.

[3] = In vivo biodistribution study in rats; set-up: species or system rat; conditions: for Biodistribution, Blood / Biodistribution, Cerebellum / Biodistribution, Cortex / Biodistribution, Heart / Biodistribution, Kidney / Biodistribution, Liver / Biodistribution, Lung / Biodistribution, Pancreas / Biodistribution, Rest brain / Biodistribution, Small intestine / Biodistribution, Spleen / Biodistribution, Stomach / Biodistribution, Striatum: n = 4, mean ± SD
Procedure: Three groups of male Sprague-Dawley (SD) rats (n = 4 in each group), weighing 250–300 g, were anesthetized with ether and given an intravenous (i.v.) injection of (-)-[^125I]OIDV or (+)-[^125I]OIDV (0.4 mL, 185 kBq). At 2, 30, and 60 min post-injection, the animals were sacrificed by decapitation under ether anesthesia. The organs of interest were dissected, weighed, and the radioactivity levels were measured in a gamma scintillation counter (AccuFLEX γ7010, Aloka, Tokyo). The degree of accumulation of radiotracer was expressed as a percentage of the injected dose per gram of tissue (% ID/g).
(§1) The results of biodistribution study were statistically analyzed using one-way ANOVA (non-parametric) followed by a Mann Whitney test. Statistical comparisons for the in vivo blocking experiments were performed using one-way ANOVA (non-parametric), Kruskal-Wallis test, and Dunn’s Multiple Comparison test.

VAChT [4] = molecular target: T1, VAChT; assay: In vivo blocking study of regional brain uptake; conditions: rats, 60 min; for regional brain uptake with co-injection of (+)-3-PPP: 0.25 μmol (+)-3-PPP co-injected i.v.; for regional brain uptake with co-injection of (+)-3-PPP / regional brain uptake with co-injection of (+)-pentazocine / regional brain uptake with co-injection of vesamicol: all four brain regions; for regional brain uptake with co-injection of (+)-pentazocine: 0.25 μmol (+)-pentazocine co-injected i.v.; for regional brain uptake with co-injection of vesamicol: 0.25 μmol (+/-)-vesamicol co-injected i.v.; for decrease in brain uptake by vesamicol: 0.250 μmol vesamicol co-injected
Procedure: The rats were sacrificed 60 minutes after injection and their brains collected. The cortex, striatum, cerebellum, and the remainder of the brain were dissected and separated, and their weights and radioactivity measured.
as §1

VAChT [5] = molecular target: T1, VAChT; assay: Ex vivo autoradiography of rat brain; format: in vivo; conditions: 60 min post-injection; for regional brain distribution by ex vivo autoradiography: tracer alone
Procedure: Four SD rats were injected intravenously with either (-)-[^125I]OIDV or (+)-[^125I]OIDV (0.4 mL, 1.85 MBq) either alone as a control or with 0.25 μmol (+/–)-vesamicol via the tail vein. At 60 min post-injection, the rats were sacrificed by exsanguination, and perfused via the left ventricle with saline solution (50 mL) followed by 4% paraformaldehyde (pH 7.4, 0.1 M phosphate buffer, 100 mL). Whole brains were removed, frozen in embedding medium at -78°C and cut into 20 μm sections at -25°C using a cryostat microtome. The sections were apposed to an imaging plate (Fujifilm, BAS-IP SR 2025) for eight days. The imaging plates were scanned by a BAS-5000 phosphor image reader (Fujifilm). Ex vivo autoradiograhy of (-)-[^123I]OIDV(0.4 mL, 111 MBq) was performed by the same method of two [^125I]OIDV isomers.

## OC1CCCCC1N1CCC(c2ccccc2)CC1 (racemic) [(+/-)-vesamicol, 2-(4-phenylpiperidino) cyclohexanol, reference compound]
VAChT [1]
  Ki: 23.3 ± 3.3 nM
σ-2 receptor
  Ki: 70 ± 16.6 nM

## CCCN1CCC[C@H](c2cccc(O)c2)C1 [(+)-[^3H]-3-PPP]
[2]; 15 min post-injection
  Radioactivities, Cerebellum: 0.53 ± 0.01 %ID/g
  Radioactivities, Cerebral cortex: 0.67 ± 0.02 %ID/g
[2]; 30 min post-injection
  Radioactivities, Cerebellum: 0.30 ± 0.03 %ID/g
  Radioactivities, Cerebral cortex: 0.37 ± 0.04 %ID/g
[2]; 60 min post-injection
  Radioactivities, Cerebellum: 0.18 ± 0.01 %ID/g
  Radioactivities, Cerebral cortex: 0.18 ± 0.01 %ID/g

## OC1C[C@@H]2CCCC[C@H]2CC1N1CCC(c2ccccc2[125I])CC1 (single isomer, unassigned; (-)) [(-)-[^125I]OIDV]
[3]; at 30 min and 60 min post-injection
  striatum distribution relative to (+)-[125I]OIDV: 1.4–1.6 times
[3]; i.v.
  retention of accumulated radioactivity in brain: greater than 60 min
[3]; i.v., 2 min post-injection
  Biodistribution, Blood: 0.13 ± 0.01 % ID/g
  Biodistribution, Cerebellum: 0.53 ± 0.04 % ID/g
  Biodistribution, Cortex: 0.55 ± 0.10 % ID/g
  Biodistribution, Heart: 2.34 ± 0.23 % ID/g
  Biodistribution, Kidney: 2.84 ± 0.63 % ID/g
  Biodistribution, Liver: 2.07 ± 0.63 % ID/g
  Biodistribution, Lung: 5.84 ± 0.44 % ID/g
  Biodistribution, Pancreas: 2.66 ± 0.40 % ID/g
  Biodistribution, Rest brain: 0.48 ± 0.07 % ID/g
  Biodistribution, Small intestine: 0.89 ± 0.12 % ID/g
  Biodistribution, Spleen: 0.94 ± 0.40 % ID/g
  Biodistribution, Stomach: 0.18 ± 0.09 % ID/g
  Biodistribution, Striatum: 0.47 ± 0.10 % ID/g
[3]; i.v., 30 min post-injection
  Biodistribution, Blood: 0.05 ± 0.01 % ID/g
  Biodistribution, Cerebellum: 0.55 ± 0.11 % ID/g
  Biodistribution, Cortex: 0.62 ± 0.10 % ID/g
  Biodistribution, Heart: 0.44 ± 0.06 % ID/g
  Biodistribution, Kidney: 2.35 ± 0.38 % ID/g
  Biodistribution, Liver: 2.60 ± 0.75 % ID/g
  Biodistribution, Lung: 2.51 ± 0.90 % ID/g
  Biodistribution, Pancreas: 4.67 ± 0.58 % ID/g
  Biodistribution, Rest brain: 0.55 ± 0.09 % ID/g
  Biodistribution, Small intestine: 1.45 ± 0.50 % ID/g
  Biodistribution, Spleen: 1.37 ± 0.27 % ID/g
  Biodistribution, Stomach: 0.22 ± 0.23 % ID/g
  Biodistribution, Striatum: 0.63 ± 0.09 % ID/g
[3]; i.v., 60 min post-injection
  Biodistribution, Blood: 0.04 ± 0.01 % ID/g
  Biodistribution, Cerebellum: 0.41 ± 0.07 % ID/g
  Biodistribution, Cortex: 0.51 ± 0.06^! % ID/g
  Biodistribution, Heart: 0.25 ± 0.05 % ID/g
  Biodistribution, Kidney: 2.21 ± 0.17 % ID/g
  Biodistribution, Liver: 2.19 ± 0.17 % ID/g
  Biodistribution, Lung: 1.54 ± 0.41 % ID/g
  Biodistribution, Pancreas: 4.21 ± 0.20 % ID/g
  Biodistribution, Rest brain: 0.47 ± 0.06^+ % ID/g
  Biodistribution, Small intestine: 1.85 ± 0.14 % ID/g
  Biodistribution, Spleen: 0.91 ± 0.08 % ID/g
  Biodistribution, Stomach: 0.24 ± 0.22 % ID/g
  Biodistribution, Striatum: 0.50 ± 0.07^$ % ID/g
[3]; i.v., all brain regions
  time post-injection of highest accumulation in the brain: 30 min
VAChT [4]
  regional brain uptake with co-injection of (+)-3-PPP: 72–82 % of control
  regional brain uptake with co-injection of (+)-pentazocine: 72–82 % of control
  regional brain uptake with co-injection of vesamicol: approximately 25 % of control
  decrease in brain uptake by vesamicol: 71–73%
VAChT [5]; 0.25 μmol vesamicol co-injected
  brain accumulation by ex vivo autoradiography with co-injection of vesamicol: remarkably decreased
VAChT [5]
  regional brain distribution by ex vivo autoradiography: distributed in characteristically VAChT-rich regions

## OC1CC2CCCCC2CC1N1CCC(c2ccccc2[125I])CC1 (single isomer, unassigned; (+)) [(+)-[^125I]OIDV]
[3]; i.v., 2 min post-injection
  Biodistribution, Blood: 0.22 ± 0.03 % ID/g
  Biodistribution, Cerebellum: 0.54 ± 0.15 % ID/g
  Biodistribution, Cortex: 0.56 ± 0.16 % ID/g
  Biodistribution, Heart: 2.79 ± 0.97 % ID/g
  Biodistribution, Kidney: 3.46 ± 0.76 % ID/g
  Biodistribution, Liver: 2.20 ± 0.22 % ID/g
  Biodistribution, Lung: 9.82 ± 1.78 % ID/g
  Biodistribution, Pancreas: 2.54 ± 0.57 % ID/g
  Biodistribution, Rest brain: 0.50 ± 0.13 % ID/g
  Biodistribution, Small intestine: 1.15 ± 1.31 % ID/g
  Biodistribution, Spleen: 1.51 ± 0.37 % ID/g
  Biodistribution, Stomach: 0.17 ± 0.07 % ID/g
  Biodistribution, Striatum: 0.49 ± 0.15 % ID/g
[3]; i.v., 30 min post-injection
  Biodistribution, Blood: 0.06 ± 0.00 % ID/g
  Biodistribution, Cerebellum: 0.46 ± 0.08 % ID/g
  Biodistribution, Cortex: 0.46 ± 0.07 % ID/g
  Biodistribution, Heart: 0.45 ± 0.04 % ID/g
  Biodistribution, Kidney: 2.25 ± 0.07 % ID/g
  Biodistribution, Liver: 2.74 ± 0.20 % ID/g
  Biodistribution, Lung: 2.59 ± 0.38 % ID/g
  Biodistribution, Pancreas: 3.51 ± 0.30 % ID/g
  Biodistribution, Rest brain: 0.44 ± 0.06 % ID/g
  Biodistribution, Small intestine: 1.68 ± 0.13 % ID/g
  Biodistribution, Spleen: 2.33 ± 0.25 % ID/g
  Biodistribution, Stomach: 0.78 ± 0.73 % ID/g
  Biodistribution, Striatum: 0.45 ± 0.07 % ID/g
[3]; i.v., 60 min post-injection
  Biodistribution, Blood: 0.05 ± 0.00 % ID/g
  Biodistribution, Cerebellum: 0.36 ± 0.05 % ID/g
  Biodistribution, Cortex: 0.31 ± 0.02^! % ID/g
  Biodistribution, Heart: 0.27 ± 0.01 % ID/g
  Biodistribution, Kidney: 1.47 ± 0.06 % ID/g
  Biodistribution, Liver: 1.94 ± 0.22 % ID/g
  Biodistribution, Lung: 1.32 ± 0.08 % ID/g
  Biodistribution, Pancreas: 2.81 ± 0.49 % ID/g
  Biodistribution, Rest brain: 0.32 ± 0.02^+ % ID/g
  Biodistribution, Small intestine: 1.60 ± 0.29 % ID/g
  Biodistribution, Spleen: 1.99 ± 0.18 % ID/g
  Biodistribution, Stomach: 0.29 ± 0.33 % ID/g
  Biodistribution, Striatum: 0.31 ± 0.02^$ % ID/g
VAChT [4]
  regional brain uptake with co-injection of (+)-3-PPP: 81–88 % of control
  regional brain uptake with co-injection of (+)-pentazocine: No decrease in uptake
  regional brain uptake with co-injection of vesamicol: approximately 50 % of control
  decrease in brain uptake by vesamicol: 50–55%
VAChT [5]
  regional brain distribution by ex vivo autoradiography: uniformly low throughout the entire rat brain
